# The supplement of paper PMC4862054
# Assays:
# Experiment in all cases: normalised response (% of control), CellTiter-Glo; higher = more viable cells (100 = DMSO, 0 = benzethonium chloride kill control)
# Details in all cases: incubation time: 72 h
# MDA-MB-468 = system: MDA-MB-468
# Summary of the method: (§1)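 Breast cancer cell lines (20 µl suspension) were seeded into 384-well plates holding compound at 5 concentrations in 10-fold steps over a compound-specific 10,000-fold range, then incubated 72 h. CellTox Green fluorescence (485/520 nm) was read first, then CellTiter-Glo luminescence after 10 min at room temperature. Each plate was normalised to 0.1 % DMSO (100) and a positive kill control (0). Each value is the normalised signal at a single concentration of the series.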
# HCC1143 = system: HCC1143
# Summary of the method: as §1
# MFM-223 = system: MFM-223
# Summary of the method: as §1
# CAL-51 = system: CAL-51
# Summary of the method: as §1
# BT-474 = system: BT-474
# Summary of the method: as §1
# MCF-10A = system: MCF-10A
# Summary of the method: as §1
# SK-BR-3 = system: SK-BR-3
# Summary of the method: as §1
# CAL-148 = system: CAL-148
# Summary of the method: as §1
# CAL-120 = system: CAL-120
# Summary of the method: as §1
# HCC1599 = system: HCC1599
# Summary of the method: as §1
# BT-549 = system: BT-549
# Summary of the method: as §1
# CAL-85-1 = system: CAL-85-1
# Summary of the method: as §1
# DU-4475 = system: DU-4475
# Summary of the method: as §1
# HDQ-P1 = system: HDQ-P1
# Summary of the method: as §1
# MDA-MB-436 = system: MDA-MB-436
# Summary of the method: as §1
# HCC1937 = system: HCC1937
# Summary of the method: as §1
# Hs578T = system: Hs578T
# Summary of the method: as §1
# MDA-MB-453 = system: MDA-MB-453
# Summary of the method: as §1
# MDA-MB-231 = system: MDA-MB-231
# Summary of the method: as §1
Structure (SMILES),normalised response (MDA-MB-468),normalised response (HCC1143),normalised response (MFM-223),normalised response (CAL-51),normalised response (BT-474),normalised response (MCF-10A),normalised response (SK-BR-3),normalised response (CAL-148),normalised response (CAL-120),normalised response (HCC1599),normalised response (BT-549),normalised response (CAL-85-1),normalised response (DU-4475),normalised response (HDQ-P1),normalised response (MDA-MB-436),normalised response (HCC1937),normalised response (Hs578T),normalised response (MDA-MB-453),normalised response (MDA-MB-231)
CS(=O)(=O)CCNCc1ccc(-c2ccc3ncnc(Nc4ccc(OCc5cccc(F)c5)c(Cl)c4)c3c2)o1 [Lapatinib] (0.1 nM),112%,99.2%,104%,110%,102%,98.4%,114%,110%,96%,90.2%,101%,106%,109%,101%,86.2%,98.8%,101%,121%,100%
Cn1cnc2c(F)c(Nc3ccc(Br)cc3F)c(C(=O)NOCCO)cc21 [MEK-162] (1 nM),103%,99.6%,103%,108%,106%,96.1%,116%,102%,100%,99.7%,99.8%,95.7%,99.7%,93.2%,101%,96.3%,95.4%,103%,99%
CCOc1cc2ncc(C#N)c(Nc3ccc(OCc4ccccn4)c(Cl)c3)c2cc1NC(=O)/C=C/CN(C)C [Neratinib] (1 nM),101%,101%,106%,80%,100%,109%,73.3%,107%,96.9%,99.2%,96.3%,94.5%,105%,93.8%,97.1%,96.7%,104%,99.5%,107%
COC1=CC(c2cc3ccccc3[nH]2)=N/C1=C\c1[nH]c(C)cc1C [Obatoclax] (10 nM),98.9%,95.5%,91.4%,121%,95%,94.7%,90.2%,89.9%,98.8%,92.2%,96.9%,93.6%,100%,92.6%,91%,94.6%,99.4%,104%,94.6%
COC(=O)C[C@](O)(CCCC(C)(C)O)C(=O)O[C@@H]1C(OC)=C[C@]23CCCN2CCc2cc4c(cc2[C@H]13)OCO4 [Omacetaxine] (10 nM),101%,109%,106%,94%,103%,123%,110%,115%,103%,92.5%,104%,98.6%,75.5%,96.1%,88.7%,100%,108%,109%,105%
CC(C)(C)c1cc(NC(=O)Nc2ccc(-c3cn4c(n3)sc3cc(OCCN5CCOCC5)ccc34)cc2)no1 [Quizartinib] (1 nM),104%,110%,111%,112%,118%,110%,56.6%,109%,111%,116%,98.8%,106%,104%,98.5%,104%,101%,97.2%,104%,106%
O=C(c1ccc(OCCN2CCCCC2)cc1)c1c(-c2ccc(O)cc2)sc2cc(O)ccc12 [Raloxifene] (10 nM),112%,115%,105%,68.2%,105%,106%,107%,106%,98.7%,100%,94.8%,99%,107%,107%,101%,106%,105%,94.7%,99.8%
Cn1c(=O)c(F)c(Nc2ccc(I)cc2F)c2c(=O)n(C[C@@H](O)CO)cnc21 [TAK-733] (1 nM),100%,103%,113%,86.9%,45.1%,83%,104%,105%,95%,102%,99.2%,98.3%,92.4%,83.7%,98.8%,98.1%,98.6%,98.7%,108%
